Experimental data from patent US20240307362A1 (priority 2019, published 2024).
Where “and” joins values, the source holds several entries; their conditions need not be identical. Identical values can stand only once. Like-named read-outs stand apart in the source and are kept apart here.

Legend:
[1] = target: mutEGFR (D770_N771insSVD) (Homo sapiens (Human), UniProt P00533, INS770SVD); experiment: biochemical; conditions: mutEGFR (D770_N771 insSVD) at 2 mM ATP IC50, 2 mM ATP
human Bub1 = human Bub1 (Homo sapiens (Human), UniProt O43683); experiment: Bub1 high ATP kinase assay (TR-FRET); assay type: biochemical
human Bub1, sequence (O43683 704-1085): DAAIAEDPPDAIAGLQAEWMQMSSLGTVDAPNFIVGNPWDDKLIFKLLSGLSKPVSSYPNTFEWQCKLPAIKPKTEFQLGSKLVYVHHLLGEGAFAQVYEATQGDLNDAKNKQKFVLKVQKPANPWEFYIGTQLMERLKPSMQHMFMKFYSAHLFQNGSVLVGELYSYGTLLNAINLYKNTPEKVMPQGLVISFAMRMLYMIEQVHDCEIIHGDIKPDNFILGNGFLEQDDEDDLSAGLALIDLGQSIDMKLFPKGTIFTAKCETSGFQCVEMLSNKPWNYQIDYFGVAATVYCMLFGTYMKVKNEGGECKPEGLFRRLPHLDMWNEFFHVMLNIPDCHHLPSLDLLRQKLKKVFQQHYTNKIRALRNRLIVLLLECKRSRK
Excerpt: Bub1-inhibitory activity of compounds of the present invention at a high ATP concentration was quantified employing the Bub1 TR-FRET high ATP kinase assay as described in the following paragraphs.
N-terminally His6-tagged recombinant catalytic domain of human Bub1 (amino acids 704-1085), expressed in insect cells (Hi5) and purified by Ni-NTA affinity chromatography and subsequent size exclusion chromatography, was used as enzyme.

Ba/F3-EGFR-insSVD = experiment: Ba/F3 cell survival assay, EGFR-insSVD; assay type: cell-based
Procedure, shortened: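 Ba/F3 cells stably expressing WT EGFR or EGFR-insSVD via retrovirus, grown without IL-3 on 10 ng/mL EGF, plated at 4000 cells/well. Compound exposure 48 h at 37 °C; viability read by CellTiter-Glo luminescence.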

Ba/F3-EGFR-WT = experiment: Ba/F3 cell survival assay, WT EGFR; assay type: cell-based
[2] = read-out: Bub1 high ATP (2 mM) IC50, 2 mM ATP
[3] = Mus musculus, BaF3, 48 h, read-out: BA/F3 (insSVD) IC50, cell viability, Cell Titer-Glo, 48 h, with 10 ng/mL EGF, without IL-3
[4] = Mus musculus, BaF3, 48 h, read-out: BA/F3 (wild type) IC50, cell viability, Cell Titer-Glo, 48 h, with 10 ng/mL EGF, without IL-3
[5] = read-out: BA/F3 (insSVD) IC50, cell viability, Cell Titer-Glo, 48 h, with 10 ng/mL EGF, without IL-3
[6] = read-out: BA/F3 (wild type) IC50, cell viability, Cell Titer-Glo, 48 h, with 10 ng/mL EGF, without IL-3

mutEGFR (D770_N771insSVD), sequence (P00533 other isoform, or with tags, fused parts or gaps ins SVD behind 770): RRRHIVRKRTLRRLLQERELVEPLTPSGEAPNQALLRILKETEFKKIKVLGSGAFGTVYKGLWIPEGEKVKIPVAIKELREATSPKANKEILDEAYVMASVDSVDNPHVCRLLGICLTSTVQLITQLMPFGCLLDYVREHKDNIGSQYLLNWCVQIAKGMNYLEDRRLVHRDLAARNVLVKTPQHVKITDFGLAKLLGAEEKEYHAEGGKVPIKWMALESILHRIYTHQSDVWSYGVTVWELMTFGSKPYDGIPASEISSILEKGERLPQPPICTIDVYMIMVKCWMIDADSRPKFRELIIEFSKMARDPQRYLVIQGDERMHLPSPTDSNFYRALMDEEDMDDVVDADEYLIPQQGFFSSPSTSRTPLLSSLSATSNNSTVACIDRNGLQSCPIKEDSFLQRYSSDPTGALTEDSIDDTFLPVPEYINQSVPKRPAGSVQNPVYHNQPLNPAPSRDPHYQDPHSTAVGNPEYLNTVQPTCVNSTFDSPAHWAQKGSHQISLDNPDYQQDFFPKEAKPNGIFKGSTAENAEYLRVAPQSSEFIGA

Structure (SMILES) | IC50 [1] [µM] | IC50 (human Bub1; [2]) | IC50 (Ba/F3-EGFR-insSVD; [3]) [µM] | IC50 (Ba/F3-EGFR-WT; [4]) [µM] | IC50 (Ba/F3-EGFR-insSVD; [5]) [µM] | IC50 (Ba/F3-EGFR-WT; [6]) [µM] | IC50 (human Bub1; Bub1 high ATP (2 mM) IC50, 2 mM ATP) [µM]
Cc1cccc(Nc2c(-c3ccncc3OCC3(C)CCO3)[nH]c3c2C(=O)NCC3)c1Cl (racemic) [Example 55, 3-(2-chloro-3-methylanilino)-2-{3-[(2-methyloxetan-2-yl)methoxy]pyridin-4-yl}-1,5,6,7-tetrahydro-4H-pyrrolo[3,2-c]pyridin-4-one] | 0.000138 | 15.4 µM | 0.0673 | 0.593 | – | – | –
Cc1cccc(Nc2c(-c3ccncc3OCC3CCO3)[nH]c3c2C(=O)NCC3)c1Cl (single isomer, unassigned; (-)) [Example 39, (−)-3-(2-chloro-3-methylanilino)-2-{3-[(oxetan-2-yl)methoxy]pyridin-4-yl}-1,5,6,7-tetrahydro-4H-pyrrolo[3,2-c]pyridin-4-one] | – | 8.32 µM | – | – | 0.473 | 1.65 | –
COc1c(Cl)cccc1Nc1c(-c2ccncc2OCC2(C)CCO2)[nH]c2c1C(=O)NCC2 (single isomer, unassigned; (-)) [Example 47, (−)-3-(3-chloro-2-methoxyanilino)-2-{3-[(2-methyloxetan-2-yl)methoxy]pyridin-4-yl}-1,5,6,7-tetrahydro-4H-pyrrolo[3,2-c]pyridin-4-one] | – | 8.86 µM | – | – | 0.0964 | 0.975 | –
COc1c(Cl)cccc1Nc1c(-c2ccncc2OCC2OCC2(C)C)[nH]c2c1C(=O)NCC2 (single isomer, unassigned; (-)) [Example 51, (−)-3-(3-chloro-2-methoxyanilino)-2-{3-[(3,3-dimethyloxetan-2-yl)methoxy]pyridin-4-yl}-1,5,6,7-tetrahydro-4H-pyrrolo[3,2-c]pyridin-4-one] | – | 17.1 µM and 17.3 µM and > 20 µM | – | – | 0.153 | 1.05 | –
Cc1cccc(Nc2c(-c3ccncc3OCC3OCC3(C)C)[nH]c3c2C(=O)NCC3)c1Cl (single isomer, unassigned; (-)) [Example 60, (−)-3-(2-chloro-3-methylanilino)-2-{3-[(3,3-dimethyloxetan-2-yl)methoxy]pyridin-4-yl}-1,5,6,7-tetrahydro-4H-pyrrolo[3,2-c]pyridin-4-one] | – | 18.8 µM and > 20 µM | – | – | > 1 | 2.13 | –
COc1c(F)cccc1Nc1c(-c2ccncc2OC[C@@H]2CCO2)[nH]c2c1C(=O)NCC2 [Example 5, 3-(3-fluoro-2-methoxyanilino)-2-(3-{[(2S)-oxetan-2-yl]methoxy}pyridin-4-yl)-1,5,6,7-tetrahydro-4H-pyrrolo[3,2-c]pyridin-4-one] | – | > 20 µM | 0.0224 | 0.578 | – | – | –
Cc1c(Cl)cccc1Nc1c(-c2ccncc2OC[C@@H]2CCO2)[nH]c2c1C(=O)NCC2 [Example 8, 3-(3-chloro-2-methylanilino)-2-(3-{[(2S)-oxetan-2-yl]methoxy}pyridin-4-yl)-1,5,6,7-tetrahydro-4H-pyrrolo[3,2-c]pyridin-4-one] | – | 7.61 µM | 0.0125 | 0.23 | – | – | –
Cc1c(Cl)cccc1Nc1c(-c2ccncc2OC[C@H]2CCO2)[nH]c2c1C(=O)NCC2 [Example 9, 3-(3-chloro-2-methylanilino)-2-(3-{[(2R)-oxetan-2-yl]methoxy}pyridin-4-yl)-1,5,6,7-tetrahydro-4H-pyrrolo[3,2-c]pyridin-4-one] | – | 1.57 µM | 0.269 | 1.2 | – | – | –
O=C1NCCc2[nH]c(-c3ccncc3OCC3COC3)c(Nc3cccc(Cl)c3OC(F)F)c21 [Example 17, 3-[3-chloro-2-(difluoromethoxy)anilino]-2-{3-[(oxetan-3-yl)methoxy]pyridin-4-yl}-1,5,6,7-tetrahydro-4H-pyrrolo[3,2-c]pyridin-4-one] | – | 7.52 µM | 0.177 | 1.74 | – | – | –
COc1c(F)cccc1Nc1c(-c2ccncc2OCC2COC2)[nH]c2c1C(=O)NCC2 [Example 18, 3-(3-fluoro-2-methoxyanilino)-2-{3-[(oxetan-3-yl)methoxy]pyridin-4-yl}-1,5,6,7-tetrahydro-4H-pyrrolo[3,2-c]pyridin-4-one] | – | 12.1 µM | 0.0801 | 0.819 | – | – | –
CCC1(COc2cnccc2-c2[nH]c3c(c2Nc2cccc(Cl)c2OC)C(=O)NCC3)COC1 [Example 22, 3-(3-chloro-2-methoxyanilino)-2-{3-[(3-ethyloxetan-3-yl)methoxy]pyridin-4-yl}-1,5,6,7-tetrahydro-4H-pyrrolo[3,2-c]pyridin-4-one] | – | 3.83 µM | 0.0572 | 0.852 | – | – | –
COc1c(Cl)cccc1Nc1c(-c2ccncc2OC[C@@H]2CCN2C)[nH]c2c1C(=O)NCC2 [Example 27, 3-(3-chloro-2-methoxyanilino)-2-(3-{[(2S)-1-methylazetidin-2-yl]methoxy}pyridin-4-yl)-1,5,6,7-tetrahydro-4H-pyrrolo[3,2-c]pyridin-4-one] | 0.000445 | – | 0.0365 | 0.937 | – | – | –
CCN1CC[C@H]1COc1cnccc1-c1[nH]c2c(c1Nc1cccc(Cl)c1OC)C(=O)NCC2 [Example 28, 3-(3-chloro-2-methoxyanilino)-2-(3-{[(2S)-1-ethylazetidin-2-yl]methoxy}pyridin-4-yl)-1,5,6,7-tetrahydro-4H-pyrrolo[3,2-c]pyridin-4-one] | 0.00106 | – | 0.181 | 1.78 | – | – | –
COc1c(Cl)cccc1Nc1c(-c2ccncc2OC[C@@H]2CCN2CC(F)(F)F)[nH]c2c1C(=O)NCC2 [Example 29, 3-(3-chloro-2-methoxyanilino)-2-(3-{[(2S)-1-(2,2,2-trifluoroethyl)azetidin-2-yl]methoxy}pyridin-4-yl)-1,5,6,7-tetrahydro-4H-pyrrolo[3,2-c]pyridin-4-one] | 0.000304 | – | 0.0608 | 1.04 | – | – | –
COc1c(Cl)cccc1Nc1c(-c2ccncc2OC[C@H]2CCN2CC(F)(F)F)[nH]c2c1C(=O)NCC2 [Example 30, 3-(3-chloro-2-methoxyanilino)-2-(3-{[(2R)-1-(2,2,2-trifluoroethyl)azetidin-2-yl]methoxy}pyridin-4-yl)-1,5,6,7-tetrahydro-4H-pyrrolo[3,2-c]pyridin-4-one] | 0.000346 | – | 0.0104 | 0.402 | – | – | –
COc1c(Cl)cccc1Nc1c(-c2ccncc2OCC2(C)CCN2C)[nH]c2c1C(=O)NCC2 (centres unmarked) [Example 31, 3-(3-chloro-2-methoxyanilino)-2-{3-[(1,2-dimethylazetidin-2-yl)methoxy]pyridin-4-yl}-1,5,6,7-tetrahydro-4H-pyrrolo[3,2-c]pyridin-4-one] | – | 7.54 µM | 0.0237 | 0.391 | – | – | –
COc1c(Cl)cccc1Nc1c(-c2ccncc2OCC2(C)CCN2CC(F)(F)F)[nH]c2c1C(=O)NCC2 (centres unmarked) [Example 32, 3-(3-chloro-2-methoxyanilino)-2-(3-{[2-methyl-1-(2,2,2-trifluoroethyl)azetidin-2-yl]methoxy}pyridin-4-yl)-1,5,6,7-tetrahydro-4H-pyrrolo[3,2-c]pyridin-4-one] | – | > 20 µM | 0.0122 | 0.298 | – | – | –
COc1c(F)cccc1Nc1c(-c2ccncc2OCC2(F)COC2)[nH]c2c1C(=O)NCC2 [Example 61, 3-(3-fluoro-2-methoxyanilino)-2-{3-[(3-fluorooxetan-3-yl)methoxy]pyridin-4-yl}-1,5,6,7-tetrahydro-4H-pyrrolo[3,2-c]pyridin-4-one] | – | > 20 µM | 0.445 | 3.57 | – | – | –
Cc1cccc(Nc2c(-c3ccncc3OCCC3CCO3)[nH]c3c2C(=O)NCC3)c1Cl (centres unmarked) [Example 62, 3-(2-chloro-3-methylanilino)-2-{3-[2-(oxetan-2-yl)ethoxy]pyridin-4-yl}-1,5,6,7-tetrahydro-4H-pyrrolo[3,2-c]pyridin-4-one] | – | 5.25 µM | 0.0421 | 3.7 | – | – | > 5.71
CCc1c(Cl)cccc1Nc1c(-c2ccncc2OCC2CCO2)[nH]c2c1C(=O)NCC2 (centres unmarked) [Example 77, 3-(3-chloro-2-ethylanilino)-2-(3-{[oxetan-2-yl]methoxy}pyridin-4-yl)-1,5,6,7-tetrahydro-4H-pyrrolo[3,2-c]pyridin-4-one] | – | 1.76 µM | 0.0467 | 0.777 | – | – | –
COc1c(F)cccc1Nc1c(-c2ccncc2OC[C@H]2CCN2C)[nH]c2c1C(=O)NCC2 [Example 79, 3-(3-fluoro-2-methoxyanilino)-2-(3-{[(2R)-1-methylazetidin-2-yl]methoxy}pyridin-4-yl)-1,5,6,7-tetrahydro-4H-pyrrolo[3,2-c]pyridin-4-one] | 0.000718 | – | 0.113 | 0.712 | – | – | –
CCC1(COc2cnccc2-c2[nH]c3c(c2Nc2cccc(Cl)c2Cl)C(=O)NCC3)COC1 [Example 87, 3-(2,3-dichloroanilino)-2-{3-[(3-ethyloxetan-3-yl)methoxy]pyridin-4-yl}-1,5,6,7-tetrahydro-4H-pyrrolo[3,2-c]pyridin-4-one] | – | > 5.7 µM | 0.119 | 0.813 | – | – | –
